Assay results published in ChEMBL document CHEMBL5625161, “Pharmacological activity and mechanism of pyrazines” (Eur J Med Chem, 2023).
Each block holds one compound with its values, some of them ahead of it.

Experiments:
[1] = molecular target: Aldo-keto reductase family 1 member B1 (Homo sapiens, UniProt P15121); test: Inhibition of human recombinant ALDR1
[2] = test system: KG-1; test: Antiproliferative activity against human KG-1 cells assessed as reduction in cell viability incubated for 72 hrs by MTT assay; assay type: functional, cell-based; conditions: KG-1, 72 h
[3] = Antiproliferative activity against mouse Ba/F3 EML4-ALK cells assessed as inhibition of cell growth; assay type: functional, cell-based
[4] = test system: MDA-MB-231; test: Cytotoxicity against human MDA-MB-231 cells assessed as cell growth inhibition at 10 uM measured after 48 hrs by SRB assay relative to control; assay type: functional; design: scale not given: the % may be the effect or the level left
[5] = test system: SNB-75; test: Cytotoxicity against human SNB-75 cells assessed as cell growth inhibition at 10 uM measured after 48 hrs by SRB assay relative to control; assay type: functional; design: scale not given: the % may be the effect or the level left
[6] = test system: PC-3; test: Cytotoxicity against human PC-3 cells assessed as cell growth inhibition at 10 uM measured after 48 hrs by SRB assay relative to control; assay type: functional; design: scale not given: the % may be the effect or the level left
[7] = test system: LOX IMVI; test: Cytotoxicity against human LOX IMVI cells assessed as cell growth inhibition at 10 uM measured after 48 hrs by SRB assay relative to control; assay type: functional; design: scale not given: the % may be the effect or the level left
[8] = test system: A549; test: Cytotoxicity against human A549 cells assessed as cell growth inhibition at 10 uM measured after 48 hrs by SRB assay relative to control; assay type: functional; design: scale not given: the % may be the effect or the level left
[9] = test system: MCF7; test: Cytotoxicity against human MCF7 cells assessed as reduction in cell growth measured after 48 hrs by MTT assay; assay type: functional, cell-based; conditions: MCF7, 48 h
[10] = Cytotoxicity against human MRC5 cells assessed as reduction in cell growth measured after 48 hrs by MTT assay; assay type: toxicity, cell-based
[11] = test system: NCI-H460; test: Antiproliferative activity against human NCI-H460 cells assessed as reduction in cell growth incubated for 48 hrs by CCK-8 assay; assay type: functional, cell-based; conditions: NCI-H460, 48 h
[12] = test system: DU-145; test: Antiproliferative activity against human DU-145 cells assessed as reduction in cell growth incubated for 48 hrs by CCK-8 assay; assay type: functional, cell-based; conditions: DU-145, 48 h
[13] = test system: MCF7; test: Antiproliferative activity against human MCF7 cells assessed as reduction in cell growth incubated for 48 hrs by CCK-8 assay; assay type: functional, cell-based; conditions: MCF7, 48 h
[14] = test system: Caco-2; test: Growth inhibition of human Caco-2 cells measured after 48 hrs by SRB assay; assay type: functional
[15] = test system: NCI-H460; test: Growth inhibition of human NCI-H460 cells measured after 48 hrs by SRB assay; assay type: functional
[16] = test system: MCF7; test: Growth inhibition of human MCF7 cells measured after 48 hrs by SRB assay; assay type: functional
[17] = Cytotoxicity against African green monkey Vero cells incubated for 48 hrs by SRB colorimetric assay; assay type: toxicity, cell-based, Chlorocebus sabaeus
[18] = test system: MDA-MB-231; test: Antiproliferative activity against human MDA-MB-231 cells assessed as inhibition of cell growth at 0.1 uM incubated for 24 hrs by SRB assay relative to control; assay type: functional; design: scale not given: the % may be the effect or the level left
[19] = test system: MCF7; test: Antiproliferative activity against human MCF7 cells assessed as inhibition of cell growth at 0.1 uM incubated for 24 hrs by SRB assay relative to control; assay type: functional; design: scale not given: the % may be the effect or the level left
[20] = test system: HCT-116; test: Antiproliferative activity against human HCT-116 cells assessed as inhibition of cell growth at 0.1 uM incubated for 24 hrs by SRB assay relative to control; assay type: functional; design: scale not given: the % may be the effect or the level left
[21] = test system: K562; test: Cytotoxicity against human K562 cells assessed as cell growth inhibition measured after 48 hrs by MTT assay; assay type: functional, cell-based; conditions: K562, 48 h
[22] = test system: MCF7; test: Cytotoxicity against human MCF7 cells assessed as cell growth inhibition measured after 48 hrs by MTT assay; assay type: functional, cell-based; conditions: MCF7, 48 h
[23] = test system: HCT-116; test: Cytotoxicity against human HCT-116 cells assessed as cell growth inhibition measured after 48 hrs by MTT assay; assay type: functional, cell-based; conditions: HCT-116, 48 h
[24] = test system: BJ; test: Cytotoxicity against human BJ cells assessed as cell growth inhibition measured after 72 hrs by Celltiter-Glo assay; assay type: functional, cell-based
[25] = test system: LN-229; test: Cytotoxicity against human LN-229 cells assessed as reduction in cell growth incubated for 72 hrs by Celltiter-Glo assay; assay type: functional, cell-based; conditions: LN-229, 72 h
[26] = test system: Human coronavirus 229E; test: Antiviral activity against Human coronavirus 229E cells assessed as inhibition of virus-induced cytopathic effect by crystal violet staining based analysis; assay type: functional, organism-based
[27] = molecular target: Fibroblast growth factor receptor 1 (Homo sapiens, UniProt P11362); test: Inhibition of human recombinant FGFR1 (461 to 768 residues) expressed in Escherichia coli BL21 Gold(DE3) cells by spectrophotometer method
[28] = test system: KG-1; test: Antiproliferative activity against FGFR1-translocated human KG-1 cells assessed as reduction in cell viability incubated for 72 hrs by CCK-8 assay; assay type: functional, cell-based; conditions: KG-1, 72 h
[29] = test system: AGS; test: Growth inhibition of human AGS cells measured after 48 hrs by SRB assay; assay type: functional
[30] = Antiproliferative activity against human WI-38 cells assessed as reduction in cell growth measured after 3 to 4 days by MTT assay; assay type: toxicity, cell-based
[31] = test system: A549; test: Antiproliferative activity against human A549 cells assessed as reduction in cell viability measured after 3 to 4 days by MTT assay; assay type: functional, cell-based
[32] = test system: L1210; test: Antiproliferative activity against mouse L1210 cells assessed as reduction in cell viability measured after 3 to 4 days by MTT assay; assay type: functional, cell-based
[33] = test system: HepG2; test: Antiproliferative activity against human HepG2 cells assessed as reduction in cell viability measured after 3 to 4 days by MTT assay; assay type: functional, cell-based
[34] = test system: SW-620; test: Antiproliferative activity against human SW-620 cells assessed as reduction in cell growth measured after 3 to 4 days by MTT assay; assay type: functional, cell-based
[35] = test system: CCRF-CEM; test: Antiproliferative activity against human CEM cells assessed as reduction in cell viability measured after 3 to 4 days by MTT assay; assay type: functional, cell-based
[36] = test system: HeLa; test: Antiproliferative activity against human HeLa cells assessed as reduction in cell viability measured after 3 to 4 days by MTT assay; assay type: functional, cell-based
[37] = test system: MCF7; test: Antiproliferative activity against human MCF7 cells assessed as reduction in cell growth measured after 3 to 4 days by MTT assay; assay type: functional, cell-based
[38] = Antiproliferative activity against human Molt 4/C8 cells assessed as reduction in cell growth measured after 3 to 4 days by MTT assay; assay type: functional, cell-based; conditions: Molt4/C8

Chain of Fibroblast growth factor receptor 1 (P11362 whole entry, the tested form may be a part): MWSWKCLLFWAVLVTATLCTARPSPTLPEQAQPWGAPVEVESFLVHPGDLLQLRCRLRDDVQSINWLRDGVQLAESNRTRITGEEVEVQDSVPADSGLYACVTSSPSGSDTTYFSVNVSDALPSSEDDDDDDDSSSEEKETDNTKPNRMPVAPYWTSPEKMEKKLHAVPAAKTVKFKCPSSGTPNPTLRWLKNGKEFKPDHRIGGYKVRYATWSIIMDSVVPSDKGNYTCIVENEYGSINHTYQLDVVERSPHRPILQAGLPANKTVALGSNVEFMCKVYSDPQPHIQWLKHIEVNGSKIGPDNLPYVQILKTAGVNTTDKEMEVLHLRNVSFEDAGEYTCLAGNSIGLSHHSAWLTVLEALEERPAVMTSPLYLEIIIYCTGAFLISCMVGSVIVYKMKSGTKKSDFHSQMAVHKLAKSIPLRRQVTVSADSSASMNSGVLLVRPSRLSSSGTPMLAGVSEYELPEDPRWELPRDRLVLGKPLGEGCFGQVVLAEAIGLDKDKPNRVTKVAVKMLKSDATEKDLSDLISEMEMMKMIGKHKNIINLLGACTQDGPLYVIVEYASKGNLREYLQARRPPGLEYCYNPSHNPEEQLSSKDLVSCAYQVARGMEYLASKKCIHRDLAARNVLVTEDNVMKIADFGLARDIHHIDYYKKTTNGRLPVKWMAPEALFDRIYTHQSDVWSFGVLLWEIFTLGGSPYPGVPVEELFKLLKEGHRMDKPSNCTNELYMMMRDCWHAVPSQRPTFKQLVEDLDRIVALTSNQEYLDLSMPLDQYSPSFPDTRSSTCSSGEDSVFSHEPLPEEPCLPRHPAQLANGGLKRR

- IC50 [1]: 6.47 µM
SMILES: O=C(c1ccc(O)cc1)c1ncc(-c2ccc(O)cc2)nc1C(=O)c1ccc(O)cc1

SMILES: O=S(=O)(c1cn(CCF)cn1)n1ccc2ncc(-c3cn[nH]c3)nc21
- IC50 [2]: 29.1 nM

SMILES: CCc1nc(C(N)=O)c(Nc2ccc3c(c2)CCN(C2CC=CC2)CC3)nc1NC1CCOCC1
- IC50 [3]: 1.2 nM

SMILES: COc1ccc(-c2cn3c(-c4ccc(OC)cc4)cnc3c(Oc3ccc4c(C)cc(=O)oc4c3)n2)cc1
- Activity [4]: 93.71%
- Activity [5]: 85.69%
- Activity [6]: 83.52%
- Activity [7]: 91.98%
- Activity [8]: 83.52%

SMILES: C/C(=N\NC(=S)N1CCCCC1)c1cnccn1
- IC50 [9]: 3.82 µM
- IC50 at 48 h [10]: > 60 µM

SMILES: C[C@@H]1[C@]2(O[C@H]3C=C4[C@@H]5CC[C@H]6Cc7nc8c(nc7C[C@]6(C)[C@H]5C[C@@H](O)[C@]4(C)[C@]31O)C[C@@H]1CC[C@H]3C4=CC[C@@H]5[C@H](C)[C@@]6(OC[C@]45C(=O)C[C@@H]3[C@@]1(C)C8)OC(C)(C)C[C@H]6O)O[C@](C)(CO)C[C@H]2O [CEPHALOSTATIN 1]
- IC50 [11]: 0.044 nM
- IC50 [12]: 0.11 nM
- IC50 [13]: 0.099 nM

- GI50 [14]: 87 µM
- GI50 [15]: 53 µM
- GI50 [16]: 41 µM
SMILES: COC(=O)c1sc2nccnc2c1Nc1cc(OC)cc(OC)c1
- IC50 at 48 h [17]: 144 µM

SMILES: Nc1nc(N2CCCC2CC2CCCC2CO)cnc1-c1cccc(Cl)c1Cl (stereo not given)
- Activity [18]: 32%
- Activity [19]: 30%
- Activity [20]: 27%

SMILES: c1ccc(CNc2c(-c3ccncc3)nc3cnccn23)cc1
- IC50 [21]: 6.66 µM
- IC50 [22]: 6.66 µM
- IC50 [23]: 6.66 µM

SMILES: N#Cc1cncc(Cl)n1
- IC50 [24]: 95.7 µM
- IC50 [25]: 18.2 µM

- IC50 [26]: 57 µM
SMILES: c1cc(-c2nc3cnccn3c2NC2CCCCC2)ccn1

- IC50 [27]: 600 nM
SMILES: COc1cc(OC)c(F)c(/C=C/c2cnc3c(n2)N(S(=O)(=O)c2cn(CCF)cn2)CC3)c1F
- IC50 [28]: 0.5 nM

- GI50 [14]: 8 µM
- GI50 [29]: 9.2 µM
SMILES: COC(=O)c1sc2nccnc2c1Nc1ccc(OC)c(OC)c1
- IC50 at 48 h [17]: 53 µM

- IC50 [31]: 900 nM
- IC50 [32]: 87 µM
- IC50 [33]: 700 nM
- IC50 [34]: 39.6 µM
- IC50 [35]: > 250 µM
- IC50 [36]: 600 nM
- IC50 [37]: > 250 µM
SMILES: O=C(Nc1ccc(Br)cc1)Nc1ccc(Oc2cnc(C(=O)NC3CCCC3)cn2)cc1
- IC50 [30]: > 100 µM
- IC50 [38]: > 250 µM
